The assay deals with GLP-1R (Homo sapiens, UniProt P43220). Nature of the assay: GLP-1R Activation - cAMP Assay. The class given is cell-based. The settings on record: each compound run on one of the two cAMP assays (Assay 1 or Assay 2, not specified). On the procedure:
GLP-1R Activation—cAMP Assay 1
GLP-1R activation by compounds of the present disclosure were quantified by measuring cAMP increase in CHO cells stably expressing GLP-1R (MultiSpan product #C1267-1a). The cells were harvested and plated in growth medium (DMEM/F-12 (Corning product #10-090-CV) supplemented with 10% FBS (HyClone product #SH30071-03), penicillin/streptomycin (Corning product #30-002CI) and 10 μg/ml puromycin (Gibco product #A11138-03)) at 1,000 cells/well in a 384-well plate (Greiner product #781080). The cells were then incubated overnight at 37° C., 5% CO2. The next day, the medium was removed and the cells were washed with DPBS (Corning product #21-031-CM) before adding the assay medium (HBSS, Corning product #21-023-CV) with 20 mM Hepes (Gibco product #15630-080) and 0.1% BSA (Rockland Immunochemicals product #BSA-1000)). Following the medium change, the cells were incubated for 1 hour at 37° C., 5% CO2. The tested GLP-1 compound was added to the cells in a 10-point dose response followed by a 30 minutes incubation at 37° C., 5% CO2. cAMP concentration increase was then detected using Cisbio's cAMP Gs Dynamic Kit (product #62AM4PEC) according to the manufacturer's protocol. The response was plotted against the log of the agonist concentration and fitted to a sigmoidal equation to determine the EC50.
Background: cAMP levels reflect the balance of adenylyl cyclase and phosphodiesterase activity.

Setting [1] is: cAMP increase in CHO cells stably expressing GLP-1R.

Chain of GLP-1R (P43220 24-463): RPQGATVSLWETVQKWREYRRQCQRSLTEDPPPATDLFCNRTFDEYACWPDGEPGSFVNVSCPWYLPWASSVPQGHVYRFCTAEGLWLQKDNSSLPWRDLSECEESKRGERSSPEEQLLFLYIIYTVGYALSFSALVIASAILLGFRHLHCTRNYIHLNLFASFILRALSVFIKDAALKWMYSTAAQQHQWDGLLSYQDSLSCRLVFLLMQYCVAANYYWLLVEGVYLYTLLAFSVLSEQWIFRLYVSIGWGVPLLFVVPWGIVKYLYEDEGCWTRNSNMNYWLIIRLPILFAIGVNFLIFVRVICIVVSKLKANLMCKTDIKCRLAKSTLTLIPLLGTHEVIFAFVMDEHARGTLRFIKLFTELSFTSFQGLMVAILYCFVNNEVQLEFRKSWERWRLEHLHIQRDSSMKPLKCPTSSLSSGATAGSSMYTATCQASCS

In the case of `CC1(C)COC[C@H]1n1c(Cc2cc(F)c(-c3ccc(F)c(OCc4ccc(Cl)cc4)n3)cc2F)nc2ccc(C(=O)O)cc21` [Example 299, (S)-2-(4-(6-((4-chlorobenzyl)oxy)-5-fluoropyridin-2-yl)-2,5-difluorobenzyl)-1-(4,4-dimethyltetrahydrofuran-3-yl)-1H-benzo[d]imidazole-6-carboxylic acid], it took 0.342 nM to reach a half-maximal effect under setting [1] (EC50).

Regarding `COC[C@H]1COC[C@H]1n1c(Cc2cc(F)c(-c3ccc(F)c(OCc4ccc(Cl)cc4F)n3)cc2F)nc2ccc(C(=O)O)cc21` [Example 543, 2-(4-(6-((4-chloro-2-fluorobenzyl)oxy)-5-fluoropyridin-2-yl)-2,5-difluorobenzyl)-1-((3S,4S)-4-(methoxymethyl)tetrahydrofuran-3-yl)-1H-benzo[d]imidazole-6-carboxylic acid], the midpoint of the response under setting [1], the EC50, lay at 0.038 nM.

Consider `Cc1cc(Cc2nc3ccc(C(=O)O)cc3n2[C@@H]2COCC2(C)C)c(Cl)cc1-c1ccnc(OCc2ccc(Cl)cc2)n1` [Example 218, (S)-2-(2-chloro-4-(2-((4-chlorobenzyl)oxy)pyrimidin-4-yl)-5-methylbenzyl)-1-(4,4-dimethyltetrahydrofuran-3-yl)-1H-benzo[d]imidazole-6-carboxylic acid], for which the EC50 (as a rule, the concentration giving half of the maximal effect) under setting [1] worked out at 0.279 nM.

With `Cn1ncc(-c2ccc(COc3cccc(-c4cc(F)c(Cc5nc6ccc(C(=O)O)cc6n5[C@@H]5COCC5(C)C)cc4F)n3)c(F)c2)n1` [Example 553, (S)-2-(2,5-difluoro-4-(6-((2-fluoro-4-(2-methyl-2H-1,2,3-triazol-4-yl)benzyl)oxy)pyridin-2-yl)benzyl)-1-(4,4-dimethyltetrahydrofuran-3-yl)-1H-benzo[d]imidazole-6-carboxylic acid], under setting [1], the EC50 was determined as 0.132 nM.

With `CC1(C)COC[C@H]1n1c(Cc2c(F)cc(-c3ccc(F)c(OCc4ccc(Cl)cc4F)n3)cc2F)nc2ccc(C(=O)O)cc21` [Example 303, (S)-2-(4-(6-((4-chloro-2-fluorobenzyl)oxy)-5-fluoropyridin-2-yl)-2,6-difluorobenzyl)-1-(4,4-dimethyltetrahydrofuran-3-yl)-1H-benzo[d]imidazole-6-carboxylic acid], the EC50 under setting [1] came to 0.17 nM.

Turning to `CC1(C)COC[C@H]1n1c(Cc2cc(F)c(-c3cccc(OCc4ccc(-n5ccnn5)cc4)n3)cc2F)nc2ccc(C(=O)O)cc21` [Example 183, (S)-2-(4-(6-((4-(1H-1,2,3-triazol-1-yl)benzyl)oxy)pyridin-2-yl)-2,5-difluorobenzyl)-1-(4,4-dimethyltetrahydrofuran-3-yl)-1H-benzo[d]imidazole-6-carboxylic Acid], the EC50 under setting [1] came out at 0.129 nM.

Under setting [1], `CO[C@@]1(C)COC[C@H]1n1c(Cc2cc(F)c(-c3cccc(OCc4ccc(Cl)cc4F)n3)cc2F)nc2ccc(C(=O)O)cc21` (single isomer, unassigned) [Example 474] returned an EC50 of 0.181 nM.

As to `CC1(C)COC[C@H]1n1c(Cn2cc(F)c(-c3ccc(F)c(OCc4ccc(C#N)cc4F)n3)cc2=O)nc2ccc(C(=O)O)cc21` [Example 328, (S)-2-((6-((4-cyano-2-fluorobenzyl)oxy)-5,5′-difluoro-2′-oxo-[2,4′-bipyridin]-1′(2′H)-yl)methyl)-1-(4,4-dimethyltetrahydrofuran-3-yl)-1H-benzo[d]imidazole-6-carboxylic acid], under setting [1], the EC50 is 0.555 nM.

`CC1(C)COC[C@H]1n1c(Cc2cc(F)c(-c3cccc(OCc4ncc(Cl)cc4F)n3)cc2F)nc2ccc(C(=O)O)cc21` (single isomer, unassigned) [Example 289A] returned an EC50 under setting [1] of 0.122 nM.

Under setting [1], `COC[C@H]1COC[C@H]1n1c(Cc2cc(F)c(-c3cccc(OCc4ccc(Cl)cc4F)n3)cc2F)nc2ccc(C(=O)O)cc21` [Example 542, 2-(4-(6-((4-chloro-2-fluorobenzyl)oxy)pyridin-2-yl)-2,5-difluorobenzyl)-1-((3S,4S)-4-(methoxymethyl)tetrahydrofuran-3-yl)-1H-benzo[d]imidazole-6-carboxylic acid] had an EC50 of 0.033 nM.

As to `Cc1cc(Cc2nc3ccc(C(=O)O)cc3n2[C@@H]2COCC2(C)C)c(F)cc1-c1ccnc(OCc2ccc(Cl)cc2F)n1` [Example 284, (S)-2-(4-(2-((4-chloro-2-fluorobenzyl)oxy)pyrimidin-4-yl)-2-fluoro-5-methylbenzyl)-1-(4,4-dimethyltetrahydrofuran-3-yl)-1H-benzo[d]imidazole-6-carboxylic acid], the EC50 under setting [1] was 0.135 nM.

`COCCn1c(Cc2cc(F)c(-c3cccc(OCc4ccc(C(F)(F)F)nc4C)n3)cc2F)nc2ccc(C(=O)O)cc21` [Example 33, 2-(2,5-difluoro-4-(6-((2-methyl-6-(trifluoromethyl)pyridin-3-yl)methoxy)pyridin-2-yl)benzyl)-1-(2-methoxyethyl)-1H-benzo[d]imidazole-6-carboxylic Acid] displayed an EC50 under setting [1] of 2.58 nM.

Under setting [1], `O=C(O)c1ccc2nc(Cc3cc(F)c(-c4cccc(OCc5ccc(Cl)cc5F)n4)cc3F)n(C3COC4CC3C4)c2c1` (racemic) [Example 407, 1-((4R)-2-oxabicyclo[3.1.1]heptan-4-yl)-2-(4-(6-((4-chloro-2-fluorobenzyl)oxy)pyridin-2-yl)-2,5-difluorobenzyl)-1H-benzo[d]imidazole-6-carboxylic acid] had an EC50 of 0.421 nM.

As for `N#Cc1ccc(COc2cccc(-c3cc(F)c(Cc4nc5ccc(C(=O)O)cc5n4[C@@H]4C[C@@H]5CC[C@H]4O5)cc3F)n2)c(F)c1` [Example 187, 1-((1R,2R,4S)-7-oxabicyclo[2.2.1]heptan-2-yl)-2-(4-(6-((4-cyano-2-fluorobenzyl)oxy)pyridin-2-yl)-2,5-difluorobenzyl)-1H-benzo[d]imidazole-6-carboxylic acid], the EC50 under setting [1] was 0.391 nM.

Regarding `CC1(C)COCC1n1c(Cc2cc(F)c(-c3ccnc(OCc4ccc(C(F)(F)F)cc4F)n3)cc2F)nc2c(F)cc(C(=O)O)cc21` (stereo not shown) [Example 200, 2-(2,5-difluoro-4-(2-((2-fluoro-4-(trifluoromethyl)benzyl)oxy)pyrimidin-4-yl)benzyl)-1-(4,4-dimethyltetrahydrofuran-3-yl)-4-fluoro-1H-benzo[d]imidazole-6-carboxylic acid], the EC50 under setting [1] came to 0.508 nM.

In the case of `CC1(C)COC[C@H]1n1c(Cc2ccc(-c3ccc(F)c(OCc4ccc(C#N)cc4F)n3)cc2F)nc2c(F)cc(C(=O)O)cc21` [Example 337, (S)-2-(4-(6-((4-cyano-2-fluorobenzyl)oxy)-5-fluoropyridin-2-yl)-2-fluorobenzyl)-1-(4,4-dimethyltetrahydrofuran-3-yl)-4-fluoro-1H-benzo[d]imidazole-6-carboxylic acid], the EC50 under setting [1] was 0.025 nM.

`CC1(C)COC[C@H]1n1c(Cc2ccc(-c3nc(OCc4ccc(C#N)cc4)c(F)cc3F)cc2F)nc2ccc(C(=O)O)cc21` [Example 152, (S)-2-(4-(6-((4-cyanobenzyl)oxy)-3,5-difluoropyridin-2-yl)-2-fluorobenzyl)-1-(4,4-dimethyltetrahydrofuran-3-yl)-1H-benzo[d]imidazole-6-carboxylic Acid]: under setting [1], a half-maximal response (EC50) required 0.115 nM.

In the case of `O=C(O)c1ccc2nc(Cc3cc(F)c(-c4cccc(OCc5ccc6ncsc6c5)n4)cc3F)n(C[C@@H]3CCO3)c2c1` [Example 530, (S)-2-(4-(6-(benzo[d]thiazol-6-ylmethoxy)pyridin-2-yl)-2,5-difluorobenzyl)-1-(oxetan-2-ylmethyl)-1H-benzo[d]imidazole-6-carboxylic acid], the EC50 under setting [1] came to 0.392 nM.

For `N#Cc1ccc(COc2cccc(-c3cc(F)c(Cc4nc5ccc(C(=O)O)cc5n4[C@H]4C[C@H]5CO[C@@H]4C5)cc3F)n2)c(F)c1` [Example 71, 1-((1R,4R,6S)-2-oxabicyclo[2.2.1]heptan-6-yl)-2-(4-(6-((4-cyano-2-fluorobenzyl)oxy)pyridin-2-yl)-2,5-difluorobenzyl)-1H-benzo[d]imidazole-6-carboxylic Acid], the EC50 under setting [1] was found to be 1.19 nM.

Where the note is “[…]”, `COC(=O)N1C[C@@H](n2c(Cc3cc(F)c(-c4cccc(OCc5ccc(C#N)cc5F)n4)cc3F)nc3ccc(C(=O)O)cc32)[C@H](OC)C1` [Example 86, 2-(4-(6-((4-cyano-2-fluorobenzyl)oxy)pyridin-2-yl)-2,5-difluorobenzyl)-1-((3R,4R)-4-methoxy-1-(methoxycarbonyl)pyrrolidin-3-yl)-1H-benzo[d]imidazole-6-carboxylic Acid] had a concentration giving a half-maximal response (EC50) of 140 nM.

Regarding `COCCn1c(Cc2c(F)cc(-c3ccc(F)c(OCc4cnc(-n5ccnn5)cc4Cl)n3)c(F)c2F)nc2ccc(C(=O)O)cc21` [Example 392, 2-(4-(6-((4-chloro-6-(1H-1,2,3-triazol-1-yl)pyridin-3-yl)methoxy)-5-fluoropyridin-2-yl)-2,3,6-trifluorobenzyl)-1-(2-methoxyethyl)-1H-benzo[d]imidazole-6-carboxylic acid], the EC50 under setting [1] turned out to be 0.036 nM.

Regarding `COCCn1cc(-c2ccc(COc3cccc(-c4cc(F)c(Cc5nc6ccc(C(=O)O)cc6n5CCOC)cc4F)n3)c(F)c2)cn1` [Example 106, 2-(2,5-difluoro-4-(6-((2-fluoro-4-(1-(2-methoxyethyl)-1H-pyrazol-4-yl)benzyl)oxy)pyridin-2-yl)benzyl)-1-(2-methoxyethyl)-1H-benzo[d]imidazole-6-carboxylic Acid], under setting [1], the EC50 stood at 2.22 nM.

The values are drawn from patent US12570642B2, “GLP-IR modulating compounds” (Gilead Sciences, Inc., priority 2021, dated 2026).
